Three sequences from patent US9572891B2, “Oligonucleotide conjugates” (Geron Corporation, priority 2001, dated 2017) can be followed below.

The series has as its target T1, telomerase (Homo sapiens, UniProt O14746).
T1 construct: made in house; host or cells: 293 cells over-expressing hTERT
Nature of the series: Bio-Tel FlashPlate telomerase inhibition assay. In kind it is biochemical. The method, then: Extracts used for screening telomerase inhibitors were routinely prepared from 293 cells over-expressing the protein catalytic subunit of telomerase (hTERT). […] 200 ml of packed cells (harvested from about 100 liters of culture) were resuspended in an equal volume of hypotonic buffer (10 mM Hepes pH 7.9, 1 mM MgCl2, 1 mM DTT, 20 mM KCl, 1 mM PMSF) and lysed using a dounce homogenizer. The glycerol concentration was adjusted to 10% and NaCl was slowly added to give a final concentration of 0.3 M. The lysed cells were stirred for 30 min and then pelleted at 100,000×g for 1 hr. Solid ammonium sulfate was added to the S100 supernatant to reach 42% saturation. The material was centrifuged; the pellet was resuspended in one fifth of the original volume and dialyzed against Buffer ‘A’ containing 50 mM NaCl. After dialysis the extract was centrifuged for 30 min at 25,000×g. Prior to affinity chromatography, Triton X-100™ (0.5%), KCl (0.3 M) and tRNA ([…]) were added. Affinity oligonucleotide (5′-biotinTEG-biotinTEG-biotinTEG-GTA GAC CTG TTA CCA guu agg guu ag 3′ [SEQ ID NO: 16]; lower case represents 2′ O-methyl ribonucleotides and upper case represents deoxynucleotides) was added to the extract (1 nmol per 10 ml of extract). After an incubation of 10 min at 30° C., Neutravidin beads (Pierce; 250 μl of a 50% suspension) were added and the mixture was rotated overnight at 4° C. The beads were pelleted and washed three times with Buffer ‘B’ containing 0.3 M KCl, twice with Buffer ‘B’ containing 0.6 M KCl, and twice more with Buffer B containing 0.3 M KCl. Telomerase was eluted in Buffer ‘B’ containing 0.3 M KCl, 0.15% Triton X-100™ and a 2.5 molar excess of displacement oligonucleotide (5′-CTAACCCTAACTGGTAACAGGTCTAC-3′ [SEQ ID NO: 17] at 0.5 ml per 125 μl of packed Neutravidin beads) for 30 min. at room temperature. A second elution was performed and pooled with the first. Purified extracts typically had specific activities of 10 fmol nucleotides incorporated/min/μl extract, or 200 nucleotides/min/mg total protein.
A suitable assay for detection and/or measurement of telomerase activity is based on a measurement of the addition of TTAGGG (SEQ ID NO. 8) telomeric repeats to a biotinylated telomerase substrate primer, a reaction catalyzed by telomerase. The biotinylated products are captured in streptavidin-coated microtiter plates. An oligonucleotide probe complementary to 3.5 telomere repeats labeled with ^33P is used for measuring telomerase products, as described below. Unbound probe is removed by washing and the amount of probe annealing to the captured telomerase products is determined by scintillation counting.
The data provided in Tables 1 and 2 below were obtained by performing the assay as described below: • 1. Oligonucleotide conjugates were stored as concentrated stocks and dissolved in PBS. • 2. For testing, the oligonucleotide conjugates were diluted to a 15× working stock in PBS and 2 μl was dispensed into two wells of a 96-well microtiter dish (assayed in duplicate). • 3. Telomerase extract was diluted to a specific activity of 0.04-0.09 fmol dNTP incorporated/min./μl in Telomerase Dilution Buffer and 18 μl added to each sample well to preincubate with compound for 30 minutes at room temperature. • 4. The telomerase reaction was initiated by addition of 10 μl Master Mix to the wells containing telomerase extract and oligonucleotide compound being tested. The plates were sealed and incubated at 37° C. for 90 min. • 5. The reaction was stopped by the addition of 10 μl HCS. • 6. 25 μl of the reaction mixture was transferred to a 96-well streptavidin-coated FlashPlate™ (NEN) and incubated for 2 hours at room temperature with mild agitation. • 7. The wells were washed three times with 180 μl 2×SSC without any incubation.
8. The amount of probe annealed to biotinylated telomerase products was detected in a scintillation counter.

The mark [1] stands for this setting: Table 1, oligonucleotide has N3′→P5′ phosphoramidate (NP) internucleoside linkages, read-out: IC50 NP.
The mark [2] stands for this setting: Table 1, oligonucleotide has N3′→P5′ thio-phosphoramidate (NPS) internucleoside linkages, read-out: IC50 NPS.
Setting [3] is: Table 2, oligonucleotide has N3′→P5′ thio-phosphoramidate (NPS) internucleoside linkages, read-out: IC50 NPS.

Values joined by “and” are separate entries in the source; they are usually repeats but may differ in a detail not shown here. Equal values may be shown once. Read-outs that look alike come from different tables or passages of the source.

T1 sequence (O14746 whole entry): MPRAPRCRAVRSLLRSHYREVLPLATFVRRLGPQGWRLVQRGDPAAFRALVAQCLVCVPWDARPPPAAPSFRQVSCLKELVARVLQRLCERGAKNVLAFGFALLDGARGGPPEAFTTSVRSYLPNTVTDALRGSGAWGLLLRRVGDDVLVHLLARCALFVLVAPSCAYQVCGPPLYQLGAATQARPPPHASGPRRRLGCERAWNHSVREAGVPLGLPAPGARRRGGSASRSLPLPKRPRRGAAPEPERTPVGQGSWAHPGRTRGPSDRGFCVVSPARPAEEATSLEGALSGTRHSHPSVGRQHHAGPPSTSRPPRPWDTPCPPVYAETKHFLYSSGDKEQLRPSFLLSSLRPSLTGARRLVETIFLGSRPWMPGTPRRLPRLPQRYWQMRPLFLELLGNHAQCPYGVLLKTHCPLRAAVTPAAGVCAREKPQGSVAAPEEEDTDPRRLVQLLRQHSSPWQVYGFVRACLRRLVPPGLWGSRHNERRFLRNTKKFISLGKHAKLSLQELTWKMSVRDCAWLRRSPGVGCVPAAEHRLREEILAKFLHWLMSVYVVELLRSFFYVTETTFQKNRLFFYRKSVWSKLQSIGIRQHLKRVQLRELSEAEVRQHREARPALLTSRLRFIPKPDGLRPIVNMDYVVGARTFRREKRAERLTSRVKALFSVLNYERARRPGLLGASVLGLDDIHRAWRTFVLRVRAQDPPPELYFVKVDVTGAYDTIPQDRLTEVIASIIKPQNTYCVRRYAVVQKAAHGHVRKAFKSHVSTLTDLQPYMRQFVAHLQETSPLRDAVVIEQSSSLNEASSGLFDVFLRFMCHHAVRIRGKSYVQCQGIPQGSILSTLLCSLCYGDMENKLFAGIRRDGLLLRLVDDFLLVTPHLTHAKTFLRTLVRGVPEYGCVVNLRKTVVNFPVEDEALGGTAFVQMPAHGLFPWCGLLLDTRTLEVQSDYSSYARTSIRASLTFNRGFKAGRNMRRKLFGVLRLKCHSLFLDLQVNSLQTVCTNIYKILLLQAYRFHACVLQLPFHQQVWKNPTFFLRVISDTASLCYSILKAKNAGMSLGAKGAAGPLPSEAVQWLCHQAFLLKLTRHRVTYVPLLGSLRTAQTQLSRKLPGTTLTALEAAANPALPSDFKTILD
T1 sequence (O60832 whole entry partner): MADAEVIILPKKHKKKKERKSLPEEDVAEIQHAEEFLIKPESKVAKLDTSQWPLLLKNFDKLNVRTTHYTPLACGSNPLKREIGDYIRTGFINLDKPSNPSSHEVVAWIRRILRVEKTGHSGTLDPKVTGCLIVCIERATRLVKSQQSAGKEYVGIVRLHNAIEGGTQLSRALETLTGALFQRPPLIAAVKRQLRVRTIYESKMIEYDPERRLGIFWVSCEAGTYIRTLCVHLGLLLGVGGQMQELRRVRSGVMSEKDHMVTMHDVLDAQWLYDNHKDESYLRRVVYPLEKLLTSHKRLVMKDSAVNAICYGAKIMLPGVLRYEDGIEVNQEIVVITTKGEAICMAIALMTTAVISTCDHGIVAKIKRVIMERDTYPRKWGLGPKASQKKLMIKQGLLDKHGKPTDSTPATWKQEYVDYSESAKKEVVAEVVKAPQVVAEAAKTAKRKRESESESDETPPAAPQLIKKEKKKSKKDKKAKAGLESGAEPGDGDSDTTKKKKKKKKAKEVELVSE
T1 sequence (Q9NPE3 whole entry partner): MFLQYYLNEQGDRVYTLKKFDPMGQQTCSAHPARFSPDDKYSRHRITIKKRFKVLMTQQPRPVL
T1 sequence (Q9NX24 whole entry partner): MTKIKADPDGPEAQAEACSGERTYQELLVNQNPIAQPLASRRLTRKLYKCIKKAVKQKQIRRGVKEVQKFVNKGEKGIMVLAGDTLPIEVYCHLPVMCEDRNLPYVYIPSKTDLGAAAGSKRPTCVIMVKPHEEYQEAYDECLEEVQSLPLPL
T1 sequence (Q9NY12 whole entry partner): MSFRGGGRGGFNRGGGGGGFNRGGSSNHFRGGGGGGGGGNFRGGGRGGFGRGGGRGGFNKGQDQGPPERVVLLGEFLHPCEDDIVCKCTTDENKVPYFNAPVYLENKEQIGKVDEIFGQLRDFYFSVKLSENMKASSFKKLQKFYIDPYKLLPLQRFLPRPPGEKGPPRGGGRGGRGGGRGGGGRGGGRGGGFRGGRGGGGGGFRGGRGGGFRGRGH

As to “GGGTTAG (unconjugated): unconjugated oligonucleotide GGGTTAG (SEQ ID: 6), tested with NP and with NPS internucleoside linkages”, the concentration for half-maximal inhibition (IC50) is 600 nM under setting [1]; 9 nM and 5 nM and 10 nM and 8 nM under setting [2]; 9 nM and 5 nM and 10 nM under setting [3].
In the case of “GTTAGG (unconjugated): unconjugated oligonucleotide GTTAGG (SEQ ID: 7), NP and NPS forms”, the IC50 runs as follows: under setting [1], 470 nM; under setting [2], 120 nM.
For the sequence “TTAGGG (unconjugated): unconjugated oligonucleotide TTAGGG (SEQ ID: 8), NP and NPS forms”, the 50% inhibitory concentration (IC50) by setting is: under setting [1], 11000 nM; under setting [2], 1200 nM; under setting [3], 1170 nM and 1000 to 55000 nM.

As a reminder, the IC50 is the midpoint of a concentration-inhibition curve.
